Experiment: Solubility of targeting ligand phosphoramidite compounds in oligonucleotide synthesis solvent (Example 5)
Format: physicochemical
Conditions: for solubility relative to Structure 103d: solvents for oligonucleotide synthesis
Description: The compositions were solubilized in dichloromethane (DCM) and dried over sieves.

## CC(=O)NC1C(OCCOCCNC(=O)CCC(NC(=O)CCC(NC(=O)CCOCCOCCOCCOCCOCCOCCOP(OCCC#N)N(C(C)C)C(C)C)C(=O)NCCOCCOC2OC(COC(C)=O)C(OC(C)=O)C(OC(C)=O)C2NC(C)=O)C(=O)NCCOCCOC2OC(COC(C)=O)C(OC(C)=O)C(OC(C)=O)C2NC(C)=O)OC(COC(C)=O)C(OC(C)=O)C1OC(C)=O (stereo not drawn) [Structure 101d, Tri-NAG-bis-Glu-NH-PEG6 phosphoramidite]
  solubility relative to Structure 103d: greater solubility

## CC(=O)NC1C(OCCOCCNC(=O)CCC(NC(=O)CCC(NC(=O)CCOCCOCCOCCOCCOCCOCCOCCOCCOP(OCCC#N)N(C(C)C)C(C)C)C(=O)NCCOCCOC2OC(COC(C)=O)C(OC(C)=O)C(OC(C)=O)C2NC(C)=O)C(=O)NCCOCCOC2OC(COC(C)=O)C(OC(C)=O)C(OC(C)=O)C2NC(C)=O)OC(COC(C)=O)C(OC(C)=O)C1OC(C)=O (stereo not drawn) [Structure 102d, Tri-NAG-bis-Glu-NH-PEG8 Phosphoramidite]
  solubility relative to Structure 103d: greater solubility

## CC(=O)NC1C(OCCOCCNC(=O)CCC(NC(=O)CCC(NC(=O)CCOCCOCCOCCOCCOP(OCCC#N)C(C(C)C)C(C)C)C(=O)NCCOCCOC2OC(COC(C)=O)C(OC(C)=O)C(OC(C)=O)C2NC(C)=O)C(=O)NCCOCCOC2OC(COC(C)=O)C(OC(C)=O)C(OC(C)=O)C2NC(C)=O)OC(COC(C)=O)C(OC(C)=O)C1OC(C)=O (stereo not drawn) [Structure 103d, Tri-NAG-bis-Glu-NH-PEG4 phosphoramidite]
Standard concentrations and solvent conditions typical for oligonucleotide synthesis
  dissolution under standard conditions: difficult to dissolve
